Experimental findings from ChEMBL document CHEMBL1132821, “2,4,5-Trisubstituted imidazoles: novel nontoxic modulators of P-glycoprotein mediated multidrug resistance. Part 1” (Bioorg Med Chem Lett, 2000) are described below.

In assay [1] the target is ATP-dependent translocase ABCB1 (Homo sapiens, UniProt P08183). Description: Evaluated for inhibition of growth of CEM/VLB1000 cell line using multidrug resistance (MDR) potentiation assay.
Assay [2] relates to NCI/ADR-RES. Description: Compound (1 uM) was evaluated for the inhibition of cell growth in MCF-7/ADR* cell line (over expresses Pgp and is for Doxorubicin resistant) in the presence of Taxol. It counts as functional. The settings on record: Homo sapiens, read-out: ED50 (the source's name).
In assay [3] the test system is NCI/ADR-RES. Description: Compound (1 uM) was evaluated for the inhibition of cell growth in MCF-7/ADR* cell line (over expresses Pgp and is for Doxorubicin resistant) in the presence of vinblastine. As to conditions: Homo sapiens, read-out: ED50 (the source's name). It counts as functional.
Assay [4] has as its system MES-SA/Dx5. Description: Compound (1 uM) was evaluated for the inhibition of cell growth in MES-SA/DX5** cell line (over expresses Pgp and is for Doxorubicin resistant) in the presence of doxorubicin. It counts as functional. As to conditions: Homo sapiens, read-out: ED50 (the source's name).
Assay [5] concerns MES-SA/Dx5. Description: Compound (1 uM) was evaluated for the inhibition of cell growth in MES-SA/DX5** cell line (over expresses Pgp and is for Doxorubicin resistant) in the presence of taxol. It counts as functional. As to conditions: Homo sapiens, read-out: ED50 (the source's name).
For assay [6], the system named is NCI/ADR-RES. As to the kind of experiment: Compound (1 uM) was evaluated for the inhibition of cell growth in MCF-7/ADR cell line (over expresses Pgp and is for Doxorubicin resistant) in the presence of vinblastine. It counts as functional. The settings on record: Homo sapiens, read-out: ED50 (the source's name).
Assay [7] deals with NCI/ADR-RES. As to the kind of experiment: Compound (1 uM) was evaluated for the inhibition of cell growth in MCF-7/ADR cell line (over expresses Pgp and is for Doxorubicin resistant) in the presence of Taxol. It counts as functional. The settings on record: Homo sapiens, read-out: ED50 (the source's name).
The test system of assay [8] is MES-SA/Dx5. As to the kind of experiment: Compound (1 uM) was evaluated for the inhibition of cell growth in MES-SA/DX5 cell line (over expresses Pgp and is Doxorubicin resistant) in the presence of doxorubicin. It counts as functional. As to conditions: Homo sapiens, read-out: ED50 (the source's name).
Assay [9] deals with MES-SA/Dx5. As to the kind of experiment: Compound (1 uM) was evaluated for the inhibition of cell growth in MES-SA/DX5 cell line (over expresses Pgp and is for Doxorubicin resistant) in the presence of taxol. It counts as functional. The settings on record: Homo sapiens, read-out: ED50 (the source's name).

Sequence of ATP-dependent translocase ABCB1 (P08183 whole entry): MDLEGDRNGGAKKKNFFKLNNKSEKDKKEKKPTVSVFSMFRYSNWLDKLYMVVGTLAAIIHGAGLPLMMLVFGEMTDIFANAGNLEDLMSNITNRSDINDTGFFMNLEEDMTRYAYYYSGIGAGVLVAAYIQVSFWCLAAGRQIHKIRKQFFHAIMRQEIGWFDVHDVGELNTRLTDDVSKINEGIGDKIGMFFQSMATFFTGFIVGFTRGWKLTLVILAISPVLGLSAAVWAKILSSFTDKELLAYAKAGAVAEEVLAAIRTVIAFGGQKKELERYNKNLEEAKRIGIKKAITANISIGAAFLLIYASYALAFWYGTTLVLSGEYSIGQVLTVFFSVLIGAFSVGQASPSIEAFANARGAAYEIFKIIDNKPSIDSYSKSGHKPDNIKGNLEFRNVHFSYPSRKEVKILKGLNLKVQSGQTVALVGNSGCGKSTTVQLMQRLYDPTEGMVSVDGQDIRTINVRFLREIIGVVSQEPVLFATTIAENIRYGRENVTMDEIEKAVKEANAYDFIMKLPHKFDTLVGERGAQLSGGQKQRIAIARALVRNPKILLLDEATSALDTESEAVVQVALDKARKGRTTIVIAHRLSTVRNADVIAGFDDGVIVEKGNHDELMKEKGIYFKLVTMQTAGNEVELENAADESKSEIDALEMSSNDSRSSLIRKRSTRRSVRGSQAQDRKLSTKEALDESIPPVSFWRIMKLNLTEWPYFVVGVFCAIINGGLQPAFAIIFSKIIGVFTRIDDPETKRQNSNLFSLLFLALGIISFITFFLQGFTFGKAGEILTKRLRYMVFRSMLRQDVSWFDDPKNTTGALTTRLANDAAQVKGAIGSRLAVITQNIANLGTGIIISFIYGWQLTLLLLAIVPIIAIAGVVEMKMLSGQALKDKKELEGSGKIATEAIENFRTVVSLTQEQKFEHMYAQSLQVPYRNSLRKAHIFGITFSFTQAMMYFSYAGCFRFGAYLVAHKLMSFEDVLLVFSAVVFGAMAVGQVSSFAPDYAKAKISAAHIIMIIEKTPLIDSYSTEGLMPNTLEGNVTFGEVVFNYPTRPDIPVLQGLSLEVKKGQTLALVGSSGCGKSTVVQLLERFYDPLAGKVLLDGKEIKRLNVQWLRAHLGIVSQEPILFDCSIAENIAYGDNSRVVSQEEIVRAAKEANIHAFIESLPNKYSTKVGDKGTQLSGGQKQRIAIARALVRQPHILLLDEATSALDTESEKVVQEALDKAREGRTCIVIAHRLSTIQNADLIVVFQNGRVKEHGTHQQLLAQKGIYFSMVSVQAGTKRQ

Regarding `COCCCc1ccc(-c2nc(-c3ccc(N(C)C)cc3)c(-c3ccc(N(C)C)cc3)[nH]2)cc1`, the GI50 in assay [1] (read-out: ED50) turned out to be 300 nM.
On the same count and under the same terms, then `CN(C)c1ccc(-c2nc(-c3ccc(/C=C/C(=O)O)cc3)n(CCc3ccccc3)c2-c2ccc(N(C)C)cc2)cc1`, with 20000 nM.
Still for that read-out and setting: for `CN(C)c1ccc(-c2nc(-c3ccc(/C=C/C#N)cc3)[nH]c2-c2ccc(N(C)C)cc2)cc1` the value was 600 nM; for `CN(C)c1ccc(-c2nc(-c3ccc(/C=C/COc4ccccc4)cc3)[nH]c2-c2ccc(N(C)C)cc2)cc1`, 450 nM; for `CN(C)c1ccc(-c2nc(-c3ccc(C(=O)O)cc3)[nH]c2-c2ccc(N(C)C)cc2)cc1`, 60000 nM.
The same measure, in the same setting: then `CN(C)C/C=C/c1ccc(-c2nc(-c3ccc(N(C)C)cc3)c(-c3ccc(N(C)C)cc3)[nH]2)cc1`, with 1300 nM.
As to `CN(C)c1ccc(-c2nc(-c3ccc(O)cc3)n(CCc3ccccc3)c2-c2ccc(N(C)C)cc2)cc1`, the GI50 in assay [1] (read-out: ED50) came to 1000 nM.
In the case of `CN(C)c1ccc(-c2nc(-c3ccc(C(=O)O)cc3)n(CCc3ccccc3)c2-c2ccc(N(C)C)cc2)cc1`, in [1] (read-out: ED50), the GI50 is 10000 nM.
Still for that read-out and setting: then `CN(C)c1ccc(-c2nc(-c3ccc(/C=C/C(=O)O)cc3)[nH]c2-c2ccc(N(C)C)cc2)cc1`, with 10000 nM.
For `CCN(CC)C(=O)OC/C=C/c1ccc(-c2nc(-c3ccc(N(C)C)cc3)c(-c3ccc(N(C)C)cc3)[nH]2)cc1`, the GI50 in [1] was 880 nM.
Turning to `COc1ccc(CCN(C)CCCC(C#N)(c2ccc(OC)c(OC)c2)C(C)C)cc1OC` (stereo unspecified), the EC50 turned out to be 2.5 µg/mL in the assay on NCI/ADR-RES [2], 0.251 µg/mL with NCI/ADR-RES [3], 3 µg/mL with MES-SA/Dx5 [4] and 2.5 µg/mL in the assay on MES-SA/Dx5 [5].
On to `CCCCC(=O)OC/C=C/c1ccc(-c2nc(-c3ccc(N(C)C)cc3)c(-c3ccc(N(C)C)cc3)[nH]2)cc1`, for which the GI50 in assay [1] (read-out: ED50) was 480 nM.
The same measure, in the same setting: then `COC(=O)C1CC1c1ccc(-c2nc(-c3ccc(N(C)C)cc3)c(-c3ccc(N(C)C)cc3)[nH]2)cc1` (stereo unspecified), with 310 nM; and `COC(=O)/C=C/c1ccc(-c2nc(-c3ccc(N(C)C)cc3)c(-c3ccc(N(C)C)cc3)[nH]2)cc1`, with 300 nM; and `CN(C)c1ccc(-c2nc(-c3ccc(/C=C/COCc4ccccc4)cc3)[nH]c2-c2ccc(N(C)C)cc2)cc1`, with 300 nM.
Same read-out and setting: for `COCCCCc1ccc(-c2nc(-c3ccc(N(C)C)cc3)c(-c3ccc(N(C)C)cc3)[nH]2)cc1` the value was 1100 nM.
As to `CCCCOC/C=C/c1ccc(-c2nc(-c3ccc(N(C)C)cc3)c(-c3ccc(N(C)C)cc3)[nH]2)cc1`, in [1], the GI50 was 110 nM.
In the case of `COCCOC/C=C/c1ccc(-c2nc(-c3ccc(N(C)C)cc3)c(-c3ccc(N(C)C)cc3)[nH]2)cc1`, the GI50 in [1] (read-out: ED50) is 90 nM.
Take `CC(C)OC(=O)/C=C/c1ccc(-c2nc(-c3ccc(N(C)C)cc3)c(-c3ccc(N(C)C)cc3)[nH]2)cc1`: the EC50 in the assay with NCI/ADR-RES [2] was 0.15 µg/mL; in the assay on NCI/ADR-RES [3] it was 0.028 µg/mL; with MES-SA/Dx5 [4], 0.34 µg/mL; in the assay on MES-SA/Dx5 [5], 0.13 µg/mL.
In the case of `COC/C=C/c1ccc(-c2nc(-c3ccc(N(C)C)cc3)c(-c3ccc(N(C)C)cc3)[nH]2)cc1`, in assay [1] (read-out: ED50), the GI50 was 130 nM.
Same read-out and setting: for `COC(=O)CCc1ccc(-c2nc(-c3ccc(N(C)C)cc3)c(-c3ccc(N(C)C)cc3)[nH]2)cc1` the value was 1000 nM.
On the same count and under the same terms, for `CN(C)c1ccc(-c2nc(-c3ccc(O)cc3)[nH]c2-c2ccc(N(C)C)cc2)cc1` the value was 5000 nM.
Regarding `CCCCCCn1c(-c2ccc(C(=O)OC)cc2)nc(-c2ccc(N(C)C)cc2)c1-c1ccc(N(C)C)cc1`, the GI50 in assay [1] was determined as 6000 nM.
On to `CCCCCCn1c(-c2ccc(C(=O)O)cc2)nc(-c2ccc(N(C)C)cc2)c1-c1ccc(N(C)C)cc1`, for which the GI50 in assay [1] (read-out: ED50) is 2000 nM.
As to `CCOC/C=C/c1ccc(-c2nc(-c3ccc(N(C)C)cc3)c(-c3ccc(N(C)C)cc3)[nH]2)cc1`, the EC50 in the assay on NCI/ADR-RES [6] was 0.01 µg/mL; in the assay on NCI/ADR-RES [7], 0.036 µg/mL; with MES-SA/Dx5 [8], 0.089 µg/mL; in the assay on MES-SA/Dx5 [9], 0.024 µg/mL. Also, in [1] (read-out: ED50), the GI50 is 80 nM.
On to `COC(=O)c1ccc(-c2nc(-c3ccc(N(C)C)cc3)c(-c3ccc(N(C)C)cc3)[nH]2)cc1`, for which the GI50 in assay [1] (read-out: ED50) was determined as 600 nM.
